Measured values: patent publication US6914057B1, “Inhibitor of cataract formation” (The Research Foundation of State University of New York, priority 1998, dated 2005)

Key:
[1] = test system: Type II ZDF/GMI diabetic rats; experiment: Development of cataracts in Type II ZDF/GMI diabetic rats treated with tetracycline analogues; assay type: in vivo, rat; settings: for percentage of Type II ZDF/GMI diabetic rats that developed cataracts: FIG. 1, treated diabetic rats, oral dose of 15 mg/kg
Source text: Diabetics develop posterior subcapsular cataracts, characterized by a central opacity in the nucleus and cortex. […] In the current study, CMT-8 administration to the Type II diabetic rats reduced the incidence of cataract development by […] at five months. In fact, this therapeutic effect may have been underestimated since it was an unexpected finding and, therefore, was not documented at the earlier time points. The mechanisms by which Type II (and Type I) diabetes causes the development of these cataracts is not yet understood.
Specifically, approximately 60% of untreated Type II ZDF/GMI diabetic rats developed cataracts whereas approximately 42% of Type II ZDF/GMI diabetic rats treated with CMT-8 developed cataracts.
In particular, approximately 60% of Type II ZDF/GMI diabetic rats treated with doxycycline developed cataracts and approximately 70% of Type II ZDF/GMI diabetic rats treated with CMT-3 developed cataracts.
It is believed that the lack of efficacy for doxycycline and CMT-3 was due to the serum concentration achieved. […] The peak serum concentration for doxycycline was determined to be 0.9 μg/ml and the peak serum concentration for CMT-3 was determined to be 4.6 μg/ml. The peak serum concentration, though, for CMT-8 was determined to be 15 μg/ml. Liu et al., The Lipophilicity and Pharmacokdnetics of Different Chemically-Modified Tetracyclines (CMTs) In Vivo, Current Medicinal Chemistry, submitted for publication in September 1999. Clearly, administration of higher oral doses of CMT-3 and doxycycline would be needed to achieve serum concentrations similar to CMT-8.
FIGS. 2 and 3 provide a comparison of healthy untreated rats with untreated Type II ZDF/GMI diabetic rats and Type II ZDF/GMI diabetic rats treated with doxycycline and CMT-8.

[2] = rat; oral dose of 15 mg/kg; cited from earlier work

| Structure (SMILES) | percentage of Type II ZDF/GMI diabetic rats that developed cataracts [1] | peak serum concentration [2] [µg/mL] | cataract development in photographs compared with non-diabetic control rats (in words) ([1]; FIGS. 2 and 3, treated Type II ZDF/GMI diabetic rats) | reduction of the incidence of cataract development ([1]; Type II diabetic rats, at five months) [%] | prevention of cataract development (in words) ([1]; ZDF/Gmi-fa Type II diabetic rats, at five months) |
| --- | --- | --- | --- | --- | --- |
| NC(=O)C1=C(O)C[C@@H]2C[C@@H]3Cc4cccc(O)c4C(=O)C3=C(O)[C@]2(O)C1=O [CMT-3, 6-demethyl-6-deoxy-4-dedimethylaminotetracycline] | approximately 70% | 4.6 | – | – | – |
| CC1c2cccc(O)c2C(O)=C2C(=O)C3(O)C(O)=C(C(N)=O)C(=O)CC3C(O)C21 (stereo not drawn) [CMT-8, 5-hydroxy-6-α-deoxy-4-dedimethylaminotetracycline] | approximately 42% | 15 | Cataracts do not appear to have developed | 37 | appeared to prevent the development of these cataracts |
| C[C@H]1c2cccc(O)c2C(=O)C2=C(O)[C@]3(O)C(=O)C(C(N)=O)=C(O)[C@@H](N(C)C)[C@@H]3[C@@H](O)[C@@H]21 [doxycycline, reference compound] | approximately 60% | 0.9 | – | – | – |
